Measurements: patent US20220009920A1 (GB005, Inc., priority 2020, published 2022)

What was measured:
Assay in all cases: Large panel kinase profiling
Format in all cases: biochemical
Settings in all cases: 1 μM test article, 1 mM ATP
[1] = molecular target: AURKB/AURB (Homo sapiens, UniProt Q96GD4)
Summary of the method: (§1)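 One compound concentration (1 μM) was screened against each kinase at 1 mM ATP using PhosphoSens CSox-Sensor detection, at 30° C., with fluorescence read every 1 min (Ex 360 nm/Em 485 nm).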

[2] = molecular target: T1, CAMKK2 (Homo sapiens, UniProt Q96RR4)
T1 construct: AssayQuant Technologies, Inc. (ran the panel)
Summary of the method: as §1

[3] = molecular target: T2, CDK1/B1 (Homo sapiens, UniProt P06493)
T2 construct: AssayQuant Technologies, Inc. (ran the panel)
T2 sequence (P06493 whole entry, species assumed): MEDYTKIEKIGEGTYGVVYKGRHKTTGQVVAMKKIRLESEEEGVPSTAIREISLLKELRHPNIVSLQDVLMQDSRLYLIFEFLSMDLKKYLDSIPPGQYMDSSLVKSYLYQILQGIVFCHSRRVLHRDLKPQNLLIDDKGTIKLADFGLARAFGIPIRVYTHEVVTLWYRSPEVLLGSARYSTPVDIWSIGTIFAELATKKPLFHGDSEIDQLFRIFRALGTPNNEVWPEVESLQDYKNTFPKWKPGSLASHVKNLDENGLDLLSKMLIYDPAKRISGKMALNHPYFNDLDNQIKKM
T2 sequence (P14635 whole entry partner, species assumed): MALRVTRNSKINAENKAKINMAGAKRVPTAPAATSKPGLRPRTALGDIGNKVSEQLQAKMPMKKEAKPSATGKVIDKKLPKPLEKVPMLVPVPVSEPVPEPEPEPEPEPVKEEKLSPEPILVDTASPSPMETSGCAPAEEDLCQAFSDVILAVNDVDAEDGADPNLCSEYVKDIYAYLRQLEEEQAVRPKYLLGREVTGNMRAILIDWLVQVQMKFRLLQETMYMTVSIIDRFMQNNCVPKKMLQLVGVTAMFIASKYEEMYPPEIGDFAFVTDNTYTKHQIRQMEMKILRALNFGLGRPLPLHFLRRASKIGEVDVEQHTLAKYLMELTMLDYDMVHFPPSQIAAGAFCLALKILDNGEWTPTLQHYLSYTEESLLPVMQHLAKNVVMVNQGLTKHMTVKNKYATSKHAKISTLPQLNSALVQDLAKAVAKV
Summary of the method: as §1

[4] = molecular target: T3, CLK1 (Homo sapiens, UniProt P49759)
T3 construct: AssayQuant Technologies, Inc. (service laboratory)
T3 sequence (P49759 whole entry): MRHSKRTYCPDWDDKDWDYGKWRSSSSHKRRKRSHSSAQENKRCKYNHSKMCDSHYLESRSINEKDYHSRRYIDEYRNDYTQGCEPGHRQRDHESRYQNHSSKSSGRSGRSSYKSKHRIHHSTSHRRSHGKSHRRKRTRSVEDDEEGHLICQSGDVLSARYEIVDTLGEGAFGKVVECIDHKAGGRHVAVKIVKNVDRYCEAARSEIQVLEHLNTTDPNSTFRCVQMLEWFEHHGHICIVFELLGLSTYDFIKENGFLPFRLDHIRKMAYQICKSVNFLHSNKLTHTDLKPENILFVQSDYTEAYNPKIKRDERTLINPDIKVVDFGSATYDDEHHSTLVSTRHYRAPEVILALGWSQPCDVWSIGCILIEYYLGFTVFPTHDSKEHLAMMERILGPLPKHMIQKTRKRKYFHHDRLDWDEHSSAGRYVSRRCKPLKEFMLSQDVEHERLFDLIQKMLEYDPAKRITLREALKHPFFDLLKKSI
Summary of the method: as §1

[5] = molecular target: T4, DDR2 (Homo sapiens, UniProt Q16832)
T4 construct: AssayQuant Technologies, Inc. (service laboratory)
T4 sequence (Q16832 22-855): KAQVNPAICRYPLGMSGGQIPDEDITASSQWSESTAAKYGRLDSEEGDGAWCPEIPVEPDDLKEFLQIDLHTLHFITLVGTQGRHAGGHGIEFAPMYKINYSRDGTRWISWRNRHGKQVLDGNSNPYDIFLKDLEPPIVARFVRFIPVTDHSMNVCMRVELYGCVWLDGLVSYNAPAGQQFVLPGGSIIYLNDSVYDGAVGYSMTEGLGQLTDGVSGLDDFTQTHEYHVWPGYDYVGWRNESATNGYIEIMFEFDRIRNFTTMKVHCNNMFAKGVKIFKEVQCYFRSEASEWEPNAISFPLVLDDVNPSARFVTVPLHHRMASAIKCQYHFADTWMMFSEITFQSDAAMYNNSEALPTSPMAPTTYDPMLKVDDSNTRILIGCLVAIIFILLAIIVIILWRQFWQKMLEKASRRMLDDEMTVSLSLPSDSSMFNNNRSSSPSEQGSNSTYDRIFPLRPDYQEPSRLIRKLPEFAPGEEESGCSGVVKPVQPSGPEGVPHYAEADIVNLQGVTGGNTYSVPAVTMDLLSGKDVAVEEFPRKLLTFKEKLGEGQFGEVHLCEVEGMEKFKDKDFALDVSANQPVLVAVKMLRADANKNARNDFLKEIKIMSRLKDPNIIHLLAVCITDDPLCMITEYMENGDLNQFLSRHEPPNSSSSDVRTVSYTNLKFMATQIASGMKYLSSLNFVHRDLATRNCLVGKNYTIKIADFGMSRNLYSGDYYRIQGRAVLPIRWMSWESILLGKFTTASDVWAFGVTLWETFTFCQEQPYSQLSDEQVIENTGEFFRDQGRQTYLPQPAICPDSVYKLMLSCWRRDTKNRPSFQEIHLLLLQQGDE
Summary of the method: as §1

[6] = molecular target: EIF2AK4/GCN2 (Homo sapiens, UniProt Q9P2K8)
EIF2AK4/GCN2, sequence (Q9P2K8 whole entry): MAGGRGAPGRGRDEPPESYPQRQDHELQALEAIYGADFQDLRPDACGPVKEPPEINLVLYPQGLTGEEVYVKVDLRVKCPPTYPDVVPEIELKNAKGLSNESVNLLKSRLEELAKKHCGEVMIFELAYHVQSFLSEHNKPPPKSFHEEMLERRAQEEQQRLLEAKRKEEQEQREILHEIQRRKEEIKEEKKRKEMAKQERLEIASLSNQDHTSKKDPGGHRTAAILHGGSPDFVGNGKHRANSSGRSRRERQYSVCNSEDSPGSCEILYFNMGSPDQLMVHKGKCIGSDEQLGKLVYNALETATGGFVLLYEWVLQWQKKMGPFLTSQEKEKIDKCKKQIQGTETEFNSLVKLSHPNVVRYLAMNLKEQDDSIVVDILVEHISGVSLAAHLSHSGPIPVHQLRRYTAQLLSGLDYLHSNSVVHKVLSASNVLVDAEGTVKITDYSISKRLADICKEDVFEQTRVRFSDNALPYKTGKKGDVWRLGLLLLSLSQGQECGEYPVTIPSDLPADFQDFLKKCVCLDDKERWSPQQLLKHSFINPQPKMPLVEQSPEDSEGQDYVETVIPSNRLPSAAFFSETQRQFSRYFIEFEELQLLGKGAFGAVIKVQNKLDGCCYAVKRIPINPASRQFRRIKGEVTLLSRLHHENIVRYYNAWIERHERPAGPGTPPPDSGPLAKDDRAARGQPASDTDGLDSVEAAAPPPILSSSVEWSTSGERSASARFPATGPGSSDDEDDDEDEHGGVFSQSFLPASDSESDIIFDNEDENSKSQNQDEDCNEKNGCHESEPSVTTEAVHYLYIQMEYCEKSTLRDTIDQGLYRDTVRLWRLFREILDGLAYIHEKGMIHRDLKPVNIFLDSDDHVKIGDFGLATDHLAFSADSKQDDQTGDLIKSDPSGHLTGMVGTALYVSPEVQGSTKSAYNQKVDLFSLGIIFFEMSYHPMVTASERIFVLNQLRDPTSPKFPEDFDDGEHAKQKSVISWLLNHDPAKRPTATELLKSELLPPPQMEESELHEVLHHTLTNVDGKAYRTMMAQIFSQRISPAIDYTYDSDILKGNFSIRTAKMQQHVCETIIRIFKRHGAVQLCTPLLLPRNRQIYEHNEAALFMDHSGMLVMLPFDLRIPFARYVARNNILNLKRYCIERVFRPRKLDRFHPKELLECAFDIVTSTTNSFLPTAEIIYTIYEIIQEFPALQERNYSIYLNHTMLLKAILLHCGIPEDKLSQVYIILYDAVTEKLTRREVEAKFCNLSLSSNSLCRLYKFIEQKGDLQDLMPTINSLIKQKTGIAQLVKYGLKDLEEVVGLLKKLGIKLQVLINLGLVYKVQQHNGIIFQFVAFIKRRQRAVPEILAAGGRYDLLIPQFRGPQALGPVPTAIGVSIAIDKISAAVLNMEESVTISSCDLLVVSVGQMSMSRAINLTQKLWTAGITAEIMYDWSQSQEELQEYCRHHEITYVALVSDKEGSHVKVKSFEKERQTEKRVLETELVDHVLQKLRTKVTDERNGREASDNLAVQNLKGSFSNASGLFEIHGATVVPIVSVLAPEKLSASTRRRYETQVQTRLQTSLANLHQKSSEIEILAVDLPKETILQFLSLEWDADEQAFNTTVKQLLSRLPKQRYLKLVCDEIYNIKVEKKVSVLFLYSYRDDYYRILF
Summary of the method: as §1

[7] = molecular target: FGFR3 (Homo sapiens, UniProt P22607)
FGFR3, sequence (P22607 23-806, species assumed): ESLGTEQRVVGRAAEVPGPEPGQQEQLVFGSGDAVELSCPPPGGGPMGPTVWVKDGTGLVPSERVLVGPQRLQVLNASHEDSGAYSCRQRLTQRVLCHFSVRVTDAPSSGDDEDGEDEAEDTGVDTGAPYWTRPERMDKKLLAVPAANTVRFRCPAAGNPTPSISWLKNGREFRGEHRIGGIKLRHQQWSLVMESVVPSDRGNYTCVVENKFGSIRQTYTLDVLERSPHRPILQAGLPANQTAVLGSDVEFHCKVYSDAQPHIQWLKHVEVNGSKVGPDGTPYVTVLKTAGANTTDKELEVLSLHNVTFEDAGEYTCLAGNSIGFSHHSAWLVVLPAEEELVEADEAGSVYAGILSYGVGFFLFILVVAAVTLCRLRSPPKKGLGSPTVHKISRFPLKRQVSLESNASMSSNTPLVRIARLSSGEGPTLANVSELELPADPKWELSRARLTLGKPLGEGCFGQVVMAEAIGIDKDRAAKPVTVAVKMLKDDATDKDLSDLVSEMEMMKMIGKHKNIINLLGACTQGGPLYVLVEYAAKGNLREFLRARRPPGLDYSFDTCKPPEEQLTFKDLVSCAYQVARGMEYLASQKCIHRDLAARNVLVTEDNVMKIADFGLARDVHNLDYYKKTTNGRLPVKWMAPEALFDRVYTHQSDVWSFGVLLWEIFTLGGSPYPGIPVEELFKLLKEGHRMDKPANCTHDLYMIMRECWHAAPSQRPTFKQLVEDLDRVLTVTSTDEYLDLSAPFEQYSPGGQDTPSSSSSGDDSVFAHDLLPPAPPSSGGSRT
Summary of the method: as §1

[8] = molecular target: FGFR4 (Homo sapiens, UniProt P22455)
FGFR4, sequence (P22455 22-802, species assumed): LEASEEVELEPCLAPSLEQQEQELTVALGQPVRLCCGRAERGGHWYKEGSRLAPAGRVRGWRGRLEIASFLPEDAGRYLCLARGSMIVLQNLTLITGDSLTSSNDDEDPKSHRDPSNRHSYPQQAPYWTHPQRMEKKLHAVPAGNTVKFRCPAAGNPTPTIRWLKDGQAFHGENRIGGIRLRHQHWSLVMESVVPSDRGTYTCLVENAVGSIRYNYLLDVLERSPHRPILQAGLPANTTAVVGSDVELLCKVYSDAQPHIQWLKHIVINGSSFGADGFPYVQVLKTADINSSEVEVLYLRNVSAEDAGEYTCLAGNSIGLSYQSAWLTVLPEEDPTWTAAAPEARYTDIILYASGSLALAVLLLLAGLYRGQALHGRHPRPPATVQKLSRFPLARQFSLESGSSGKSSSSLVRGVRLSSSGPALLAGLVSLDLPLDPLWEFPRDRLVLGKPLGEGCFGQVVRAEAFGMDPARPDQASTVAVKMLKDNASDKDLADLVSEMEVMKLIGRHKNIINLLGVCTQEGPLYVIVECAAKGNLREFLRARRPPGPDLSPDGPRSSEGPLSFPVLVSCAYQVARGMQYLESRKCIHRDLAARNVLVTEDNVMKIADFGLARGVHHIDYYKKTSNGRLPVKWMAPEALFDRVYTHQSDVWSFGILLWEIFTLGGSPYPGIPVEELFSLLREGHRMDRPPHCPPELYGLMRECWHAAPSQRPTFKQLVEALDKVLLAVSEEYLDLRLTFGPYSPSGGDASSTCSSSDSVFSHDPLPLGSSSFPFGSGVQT
Summary of the method: as §1

[9] = molecular target: T5, GRK5 (Homo sapiens, UniProt P34947)
T5 construct: AssayQuant Technologies, Inc. (service provider)
Summary of the method: as §1

[10] = molecular target: T6, HIPK4 (Homo sapiens, UniProt Q8NE63)
T6 construct: AssayQuant Technologies, Inc. (service provider)
T6 sequence (Q8NE63 1-616): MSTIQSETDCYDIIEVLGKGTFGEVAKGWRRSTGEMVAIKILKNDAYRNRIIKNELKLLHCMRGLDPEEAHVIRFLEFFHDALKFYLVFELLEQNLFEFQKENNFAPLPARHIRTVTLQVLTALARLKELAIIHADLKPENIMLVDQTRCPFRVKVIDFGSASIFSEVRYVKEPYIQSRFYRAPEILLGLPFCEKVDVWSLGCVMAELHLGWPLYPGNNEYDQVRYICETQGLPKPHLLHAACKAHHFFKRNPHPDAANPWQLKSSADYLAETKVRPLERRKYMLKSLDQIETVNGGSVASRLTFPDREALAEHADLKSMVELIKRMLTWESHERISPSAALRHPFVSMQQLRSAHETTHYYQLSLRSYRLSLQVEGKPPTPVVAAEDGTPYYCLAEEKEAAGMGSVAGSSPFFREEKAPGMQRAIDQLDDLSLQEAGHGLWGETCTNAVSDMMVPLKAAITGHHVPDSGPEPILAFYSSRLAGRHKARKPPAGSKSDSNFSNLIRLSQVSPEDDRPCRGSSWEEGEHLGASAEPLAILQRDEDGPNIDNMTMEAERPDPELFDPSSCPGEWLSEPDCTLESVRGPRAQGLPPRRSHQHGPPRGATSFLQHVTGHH
Summary of the method: as §1

[11] = molecular target: T7, JAK1(JH1JH2) (Homo sapiens, UniProt P23458)
T7 construct: JAK1(JH1JH2)
Summary of the method: as §1

[12] = molecular target: T8, MAPK1/ERK2 (Homo sapiens, UniProt P28482)
T8 construct: AssayQuant Technologies, Inc. (service provider)
T8 sequence (P28482 whole entry): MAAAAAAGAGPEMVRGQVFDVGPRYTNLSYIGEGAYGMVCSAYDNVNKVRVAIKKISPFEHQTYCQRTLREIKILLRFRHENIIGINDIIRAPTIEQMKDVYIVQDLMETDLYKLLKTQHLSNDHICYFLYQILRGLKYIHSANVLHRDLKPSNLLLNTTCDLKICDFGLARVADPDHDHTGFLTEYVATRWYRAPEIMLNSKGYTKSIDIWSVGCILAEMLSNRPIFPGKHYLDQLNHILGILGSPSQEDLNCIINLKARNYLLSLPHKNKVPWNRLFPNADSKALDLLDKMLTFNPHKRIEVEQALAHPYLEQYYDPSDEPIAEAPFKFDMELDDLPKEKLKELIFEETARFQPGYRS
Summary of the method: as §1

[13] = molecular target: T9, TYK2(JH1) (Homo sapiens, UniProt P29597)
T9 construct: TYK2(JH1); AssayQuant Technologies, Inc. (contract laboratory that ran the panel)
T9 sequence (P29597 897-1176 limits assumed): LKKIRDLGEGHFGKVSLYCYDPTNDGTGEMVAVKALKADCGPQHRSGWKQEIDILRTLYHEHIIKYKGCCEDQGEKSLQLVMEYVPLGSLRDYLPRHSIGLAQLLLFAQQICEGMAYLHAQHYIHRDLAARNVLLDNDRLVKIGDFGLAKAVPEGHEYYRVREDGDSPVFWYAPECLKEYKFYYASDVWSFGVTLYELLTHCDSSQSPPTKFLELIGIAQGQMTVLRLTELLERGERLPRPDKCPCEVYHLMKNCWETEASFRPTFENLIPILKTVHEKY
Summary of the method: as §1

| Compound | inhibition at 1 µM [1] [%] | inhibition at 1 µM [2] [%] | inhibition at 1 µM [3] [%] | inhibition at 1 µM [4] [%] | inhibition at 1 µM [5] [%] | inhibition at 1 µM [6] [%] | inhibition at 1 µM [7] [%] | inhibition at 1 µM [8] [%] | inhibition at 1 µM [9] [%] | inhibition at 1 µM [10] [%] | inhibition at 1 µM [11] [%] | inhibition at 1 µM [12] [%] | inhibition at 1 µM [13] [%] |
| --- | --- | --- | --- | --- | --- | --- | --- | --- | --- | --- | --- | --- | --- |
| C=CC(=O)N1CCCC(c2c(F)cc(C(N)=O)c3[nH]c4c(c23)CCCCC4)C1 (single isomer, unassigned) [Compound 5-6] | -19 | 25.8 | -13.7 | -26.4 | -6.5 | -20.4 | 24.2 | 24.5 | -8.8 | -1.6 | 8.5 | -4.4 | -2.7 |
| C=CC(=O)N1CCC[C@@H](c2c(F)cc(C(N)=O)c3[nH]c4c(c23)CC2(CC4)CC2)C1 [Compound 6-2, (S)-5-(1-acryloylpiperidin-3-yl)-6-fluoro-1,2,4,9-tetrahydrospiro[carbazole-3,1′-cyclopropane]-8-carboxamide] | -11.5 | 0.4 | -9.5 | -10.4 | -15.9 | 25.9 | 10.5 | 4.9 | -114 | -1.9 | 29.4 | -3.8 | -1.1 |
| C=CC(=O)N1CCC[C@@H](c2c(F)cc(C(N)=O)c3[nH]c4c(c23)CCC4)C1 [Compound 10-2, (S)-8-(1-acryloylpiperidin-3-yl)-7-fluoro-1,2,3,4-tetrahydrocyclo-penta[b]indole-5-carboxamide] | -14.9 | 2.6 | -3.8 | -11.1 | -26.7 | 29.1 | 18.3 | 9.8 | -2.2 | 24.3 | 14.8 | -8.8 | 3.5 |
